Results: patent publication US20100279863A1, “HERBICIDAL COMPOUNDS BASED ON N-AZINYL-N'-PYRIDYLSULFONYLUREAS” (Bayer CropScience AG, priority 2009, published 2010)

Experiments:
Format in all cases: in vivo
[1] = system: Chickweed (Stellaria media); assay: Post-emergence herbicidal activity, STEME; conditions: one-leaf stage, 80 g/ha, scored visually after approximately 3 weeks, 100% = plants have died
Protocol: (§1) Seeds of monocotyledonous or dicotyledonous weed plants or crop plants are placed in sandy loam in wood fiber pots, covered with soil and grown in the greenhouse under good growth conditions. 2 to 3 weeks after sowing, the test plants are treated in the one-leaf stage. The compounds according to the invention, which are formulated as wettable powders (WP), are then sprayed onto the green plant parts in the form of an aqueous suspension or emulsion with a water application rate of 600 l/ha (converted) with addition of 0.2% of wetter. After the test plants have been left to stand in the greenhouse for approximately 3 weeks under optimal growth conditions, the activity of the preparation is scored visually in comparison with untreated controls (herbicidal activity in percent (%): 100% activity=plants have died, 0% activity=like control plants). In the table, the individual crops are abbreviated as follows: • ABUTH: Velvetleaf (Abutilon theophrasti) • ALOMY: Slender meadow foxtail (Alopecurus myosuroides) • AMARE: Redroot pigweed (Amaranthus retroflexus) • CHEAL: Lambs quarters (Chenopodium album) • ECHCG: Barnyard grass (Echinochloa crus-galls) • LOLMU: Italian rye grass (Lolium multiflorum) • MATIN: Scentless camomile (Matricaria inodora) • PHBPU: Purple morning glory (Pharbitis/Ipomoea purpurea) • POLCO: Black bindweed (Polygonum convolvulus) • SETVI: Green bristlegrass (Setaria viridis) • STEME: Chickweed (Stellaria media) • VIOTR: Wild pansy (Viola tricolor) • XANST: Rough cocklebear (Xanthium strumarium)

[2] = system: Redroot pigweed (Amaranthus retroflexus); assay: Post-emergence herbicidal activity, AMARE; conditions: one-leaf stage, 80 g/ha, scored visually after approximately 3 weeks, 100% = plants have died
Protocol: as §1

[3] = system: Barnyard grass (Echinochloa crus-galls); assay: Post-emergence herbicidal activity, ECHCG; conditions: one-leaf stage, 80 g/ha, scored visually after approximately 3 weeks, 100% = plants have died
Protocol: as §1

[4] = system: Italian rye grass (Lolium multiflorum); assay: Post-emergence herbicidal activity, LOLMU; conditions: one-leaf stage, 80 g/ha, scored visually after approximately 3 weeks, 100% = plants have died
Protocol: as §1

[5] = system: Redroot pigweed (Amaranthus retroflexus); assay: Pre-emergence herbicidal activity, AMARE; conditions: 80 g/ha, scored visually after approximately 3 weeks, 100% = plants have died
From the text: (§2) Seeds of monocotyledonous or dicotyledonous weed plants or crop plants are placed in sandy loam in wood fiber pots and covered with soil. The compounds according to the invention, which are formulated as wettable powders (WP) are then applied to the surface of the soil cover in the form of an aqueous suspension or emulsion with a water application rate of 600 I/ha (converted), with addition of 0.2% wetter. After the treatment, the pots are placed in the greenhouse and maintained under good growth conditions for the test plants. After approximately 3 weeks, the activity of the preparation is scored visually in comparison with untreated controls (herbicidal activity in percent (%): 100% activity=plants have died, 0% activity=like control plants). In the table, the individual crops are abbreviated as follows: • ALOMY: Slender meadow foxtail (Alopecurus myosuroides) • AMARE: Redroot pigweed (Amaranthus retroflexus) • CHEAL: Lambs quarters (Chenopodium album) • DIGSA: Hairy crab grass (Digitaria sanguinalis) • ECHCG: Barnyard grass (Echinochloa crus-galls) • LOLMU: Italian rye grass (Lolium multiflorum) • MATIN: Scentless camomile (Matricaria inodora) • PHBPU: Purple morning glory (Pharbitis/Ipomoea purpurea) • SETVI: Green bristlegrass (Setaria viridis) • SINAL: White mustard (Sinapis alba) • STEME: Chickweed (Stellaria media) • VIOTR: Wild pansy (Viola tricolor)

[6] = system: Black bindweed (Polygonum convolvulus); assay: Post-emergence herbicidal activity, POLCO; conditions: one-leaf stage, 80 g/ha, scored visually after approximately 3 weeks, 100% = plants have died
Protocol: as §1

[7] = system: Scentless camomile (Matricaria inodora); assay: Pre-emergence herbicidal activity, MATIN; conditions: 80 g/ha, scored visually after approximately 3 weeks, 100% = plants have died
From the text: as §2

[8] = system: Purple morning glory (Pharbitis/Ipomoea purpurea); assay: Post-emergence herbicidal activity, PHBPU; conditions: one-leaf stage, 80 g/ha, scored visually after approximately 3 weeks, 100% = plants have died
Protocol: as §1

[9] = system: Purple morning glory (Pharbitis/Ipomoea purpurea); assay: Pre-emergence herbicidal activity, PHBPU; conditions: 80 g/ha, scored visually after approximately 3 weeks, 100% = plants have died
From the text: as §2

[10] = system: Wild pansy (Viola tricolor); assay: Post-emergence herbicidal activity, VIOTR; conditions: one-leaf stage, 80 g/ha, scored visually after approximately 3 weeks, 100% = plants have died
Protocol: as §1

[11] = system: White mustard (Sinapis alba); assay: Pre-emergence herbicidal activity, SINAL; conditions: 80 g/ha, scored visually after approximately 3 weeks, 100% = plants have died
From the text: as §2

[12] = system: Wild pansy (Viola tricolor); assay: Pre-emergence herbicidal activity, VIOTR; conditions: 80 g/ha, scored visually after approximately 3 weeks, 100% = plants have died
From the text: as §2

[13] = system: Velvetleaf (Abutilon theophrasti); assay: Post-emergence herbicidal activity, ABUTH; conditions: one-leaf stage, 80 g/ha, scored visually after approximately 3 weeks, 100% = plants have died
Protocol: as §1

[14] = system: Chickweed (Stellaria media); assay: Pre-emergence herbicidal activity, STEME; conditions: 80 g/ha, scored visually after approximately 3 weeks, 100% = plants have died
From the text: as §2

[15] = system: Lambs quarters (Chenopodium album); assay: Post-emergence herbicidal activity, CHEAL; conditions: one-leaf stage, 80 g/ha, scored visually after approximately 3 weeks, 100% = plants have died
Protocol: as §1

[16] = system: Lambs quarters (Chenopodium album); assay: Pre-emergence herbicidal activity, CHEAL; conditions: 80 g/ha, scored visually after approximately 3 weeks, 100% = plants have died
From the text: as §2

[17] = system: Slender meadow foxtail (Alopecurus myosuroides); assay: Pre-emergence herbicidal activity, ALOMY; conditions: 80 g/ha, scored visually after approximately 3 weeks, 100% = plants have died
From the text: as §2

[18] = system: Slender meadow foxtail (Alopecurus myosuroides); assay: Post-emergence herbicidal activity, ALOMY; conditions: one-leaf stage, 80 g/ha, scored visually after approximately 3 weeks, 100% = plants have died
Protocol: as §1

[19] = system: Green bristlegrass (Setaria viridis); assay: Pre-emergence herbicidal activity, SETVI; conditions: 80 g/ha, scored visually after approximately 3 weeks, 100% = plants have died
From the text: as §2

[20] = system: Rough cocklebear (Xanthium strumarium); assay: Post-emergence herbicidal activity, XANST; conditions: one-leaf stage, 80 g/ha, scored visually after approximately 3 weeks, 100% = plants have died
Protocol: as §1

[21] = system: Scentless camomile (Matricaria inodora); assay: Post-emergence herbicidal activity, MATIN; conditions: one-leaf stage, 80 g/ha, scored visually after approximately 3 weeks, 100% = plants have died
Protocol: as §1

[22] = system: Green bristlegrass (Setaria viridis); assay: Post-emergence herbicidal activity, SETVI; conditions: one-leaf stage, 80 g/ha, scored visually after approximately 3 weeks, 100% = plants have died
Protocol: as §1

[23] = system: Hairy crab grass (Digitaria sanguinalis); assay: Pre-emergence herbicidal activity, DIGSA; conditions: 80 g/ha, scored visually after approximately 3 weeks, 100% = plants have died
From the text: as §2

[24] = system: Italian rye grass (Lolium multiflorum); assay: Pre-emergence herbicidal activity, LOLMU; conditions: 80 g/ha, scored visually after approximately 3 weeks, 100% = plants have died
From the text: as §2

[25] = system: Barnyard grass (Echinochloa crus-galls); assay: Pre-emergence herbicidal activity, ECHCG; conditions: 80 g/ha, scored visually after approximately 3 weeks, 100% = plants have died
From the text: as §2

Structure (SMILES)	herbicidal activity in percent, STEME [1]	herbicidal activity in percent, AMARE [2]	herbicidal activity in percent, ECHCG [3]	herbicidal activity in percent, LOLMU [4]	herbicidal activity in percent, AMARE [5]	herbicidal activity in percent, POLCO [6]	herbicidal activity in percent, PHBPU [8]	herbicidal activity in percent, VIOTR [10]	herbicidal activity in percent, VIOTR [12]	herbicidal activity in percent, ABUTH [13]	herbicidal activity in percent, STEME [14]	herbicidal activity in percent, CHEAL [15]	herbicidal activity in percent, ALOMY [17]	herbicidal activity in percent, ALOMY [18]	herbicidal activity in percent, SETVI [19]	herbicidal activity in percent, XANST [20]	herbicidal activity in percent, MATIN [21]	herbicidal activity in percent, SETVI [22]	herbicidal activity in percent, LOLMU [24]	herbicidal activity in percent, ECHCG [25]	other results
CN(C)c1nc(NC(=O)NS(=O)(=O)c2cnccc2C2=NOCCO2)nc(OCC(F)(F)F)n1 [Ia-8]	80%	80%	80%	80%	–	–	–	–	–	–	–	–	–	–	–	–	–	–	–	–	–
COc1cc(OC)nc(NC(=O)NS(=O)(=O)c2cnccc2C2=NOCCO2)n1 [Ia-2, 4-(5,6-Dihydro-1,4,2-dioxazin-3-yl)-N-[(4,6-dimethoxypyrimidin-2-yl)carbamoyl]pyridine-3-sulfonamide]	95%	100%	90%	95%	90%	90%	90%	90%	90%	90%	90%	80%	90%	90%	100%	100%	90%	95%	90%	90%	herbicidal activity in percent, MATIN [7]: 90%; herbicidal activity in percent, PHBPU [9]: 80%; herbicidal activity in percent, SINAL [11]: 100%; herbicidal activity in percent, CHEAL [16]: 100%; herbicidal activity in percent, DIGSA [23]: 80%
COc1cc(C)nc(NC(=O)NS(=O)(=O)c2cnccc2C2=NOCCO2)n1 [Ia-9]	90%	100%	90%	90%	90%	90%	100%	90%	90%	90%	90%	90%	90%	90%	90%	100%	100%	80%	90%	80%	herbicidal activity in percent, MATIN [7]: 90%; herbicidal activity in percent, PHBPU [9]: 90%; herbicidal activity in percent, CHEAL [16]: 90%; herbicidal activity in percent, DIGSA [23]: 90%
Cc1cc(C)nc(NC(=O)NS(=O)(=O)c2cnccc2C2=NOCCO2)n1 [Ia-3]	85%	95%	95%	85%	85%	80%	100%	80%	80%	90%	80%	80%	90%	90%	90%	90%	100%	80%	85%	80%	herbicidal activity in percent, MATIN [7]: 90%; herbicidal activity in percent, PHBPU [9]: 90%; herbicidal activity in percent, SINAL [11]: 90%; herbicidal activity in percent, CHEAL [16]: 90%
COc1cc(OC)nc(NC(=O)NS(=O)(=O)c2cccnc2C2=NOCCO2)n1 [Ic-1]	90%	95%	90%	85%	90%	90%	90%	90%	80%	80%	90%	80%	90%	80%	85%	90%	90%	85%	85%	90%	herbicidal activity in percent, SINAL [11]: 90%; herbicidal activity in percent, DIGSA [23]: 80%
